One assay concerns multiple cancers. Kind of assay: Cell viability (FIGS. 11-26). It is filed as cell-based.
For assay [1], the system named is DU145 cells. The assay can be described thus: WST-1 cell viability assay. It is filed as cell-based. On the procedure:
In order to test the activity of MMSET inhibitors on cell viability, a WST-1 cell viability assay (Roche) was performed. The aggressive prostate cell line DU145 was treated with different doses of small molecules dissolved in DMSO for 96 hours before performing the WST-1 assay according to manufacturer's protocol. Each experiment was performed 8 times and absorbance was measured at 450 nm.
Background: Formazan colour is commonly taken as a measure of viable cells.

Assay [2] relates to histone H3 methylation in DU145 cells. Kind of assay: Immunoblot analyses of histone H3 methylation modifications. The format is cell-based. On the procedure: DU145 cells were incubated with multiple doses of small molecule inhibitors for 96 hours or were subjected to siRNA-mediated MMSET knockdown as described herein (e.g., using sh1 GGUCCAAAGUGUCGGGUUA or sh2 GUCAGUGGAGGAGCGGAA). Cells were homogenized in NP40 lysis buffer (50 mM Tris-HCl, 1% NP40, pH 7.4, Sigma, St. Louis, Mo.) with Complete proteinase inhibitor mixture (Roche, Indianapolis, Ind.). Ten micrograms of each protein extract were boiled in sample buffer, separated by SDS-PAGE, and transferred onto Polyvinylidene Difluoride membrane (GE Healthcare). The membrane was incubated for one hour in blocking buffer and incubated overnight at 4° C. with the following antibodies: anti-mono, di, and trimethylated H3-27, anti-di and trimethylated H3-k36, and anti-trimethylated H3-K9. Following a wash with TBS-T, the blot was incubated with horseradish peroxidase-conjugated secondary antibody. Signals were visualized by enhanced chemiluminescence as described by the manufacturer (GE Healthcare). The blots were re-probed with anti-H3 and β-actin for confirmation of equal loading.
(In general: Immunoblotting shows a protein as a band on a membrane.)

Another assay has as its system xenograft tumors. Kind of assay: Xenograft tumors. To be noted: in vivo.
The subject of assay [3] is DU145 cells. Kind of assay: Basement membrane matrix invasion assay. The format is cell-based. To be noted: 48 hours. As to the method:
DU145 cells were used for invasion assays. In some experiments, MMSET knockdown was performed by transfecting cells with two different MMSET-specific siRNAs. Forty-eight hours post-transfection, cells were seeded onto the basement membrane matrix (EC matrix, Chemicon, Temecula, Calif.) present in the insert of a 24-well culture plate. In some experiments, MMSET was inhibited using a small molecule inhibitor (MCTP39). Fetal bovine serum was added to the lower chamber as a chemoattractant with or without 2 doses of small molecule inhibitors. After 48 hours, the non-invading cells and EC matrix were gently removed with a cotton swab. Invasive cells located on the lower side of the chamber were measured colorimetrically by treating with 150 μl of 10% acetic acid and the absorbance measured at 560 nm using a spectrophotometer.

Assay [4] relates to translocation positive MM cell lines. The assay can be described thus: Specificity in MM cell lines. It is filed as cell-based.

This is an account of results in patent US8697407B2, “Compositions and methods for inhibiting MMSET” (The Regents of The University of Michigan, priority 2010, dated 2014).

“Also recorded” adds a separate entry of the source. Like-named read-outs stand apart in the source and are kept apart here.

On to `NNc1nc2ccccc2nc1S` [MCTP39, 3-hydrazinylquinoxaline-2-thiol], for which, in the assay with multiple cancers, the cell viability result is recorded as “decreased”. Besides, in the assay with DU145 cells [1], the “proliferation of DU145 cells” value was “affected proliferation and invasion of DU145 cells even at very low concentration”. In addition, the IC50 (commonly the concentration needed to halve the response being measured) in the assay with DU145 cells [1] (Homo sapiens, DU-145, 96 hours, WST-1) is < 3000 nM. In assay [2], the H3K27 trimethylation result is “dose-dependent decreased”, the H3K36 dimethylation result was “dose-dependent decreased” and the H3K36 trimethylation result is reported as “dose-dependent decreased”. Further, the H3K27 dimethylation result in assay [2] (96 hours) is listed as “dose-dependent decreased”. In addition, in assay [2] (listed as N39), the H3K27 trimethylation entry is reported as “reduced”, the H3K36 dimethylation entry was “reduced” and the H3K36 trimethylation entry is recorded as “reduced”. Moreover, the “tumor size / tumor volume in xenograft tumors” value with xenograft tumors was “decreased; also recorded: reduces tumor volume”. For the same compound, the “invasion of DU145 cells” value in the assay on DU145 cells [3] was “affected proliferation and invasion of DU145 cells even at very low concentration”. Also, the “specificity toward translocation positive MM cell lines” value in assay [4] is “shows specificity toward translocation positive MM cell lines”.
